For 17 compounds, ALP, P and Ca results are on record in US5216183A, “Cyclopentanone/cyclopentenone derivative” (Teijin Limited, priority 1988, dated 1993).

Test [1] has as its system human osteoblast (KK-3, 18PDL). The test can be described thus: Determination (3) of bone formation activity (KK-3, 14 days). Type of test: cell-based. The note with it: Table 40; for ALP: control 0.72 ± 0.17; for P: control 51 ± 5; for Ca: control 90 ± 8. As for the experimental part:
Human osteoblast (KK-3, 18PDL) was cultured in α-MEM containing 10% fetal bovine serum, and when a stable growth was attained, a predetermined concentration of the compound was added in the presence of 2 mM α-glycerophosphoric acid salt, followed by treatment for 14 days. The cell layer was washed with a physioligical salt solution and the alkali phosphatase activity then measured by absorption at OD415. Next, calcium and phosphorus were extracted with a 2N hydrochloric acid solution and quantitated.

Test [2] has as its system human osteoblasts (KK-3, 18PDL). In words: Measurement of bone formation activity (KK-3, 14 days). It is filed as cell-based. On the procedure:
Human osteoblasts (KK-3, 18PDL) were cultured in an α-MEM containing 10% fetal calf serum. After the growth became stationary, the compound was added in a given concentration in the presence of 2 mM α-glycerophosphate and treated for 14 days. The cell phase was washed with physiological saline, and the alkaline phosphatase activity (ALP) was measured through the absorption of OD415. Then, calcium (Ca) and phosphorus (P) were extracted with a 2N hydrochloric acid and quantitatively determined.

Where [3] appears, read: Table 36, 10^-6 M, control 1.17 ± 0.03.
[4] abbreviates: Table 36, 10^-6 M, control 2.33 ± 1.15.
[5] abbreviates: Table 27, 10^-7 M, control 0.58 ± 0.03.
The mark [6] stands for this setting: Table 27, 10^-7 M, control 11.83 ± 3.18.
Where [7] appears, read: Table 35, 10^-5 M, control 1.23 ± 0.02.
[8] abbreviates: Table 35, 10^-5 M, control 3.00 ± 1.00.
Where [9] appears, read: Table 35, 10^-6 M, control 1.23 ± 0.02.
The mark [10] stands for this setting: Table 35, 10^-6 M, control 3.00 ± 1.00.
The mark [11] stands for this setting: Table 35, 10^-6 M, control 5.67 ± 0.58.

In test [1] (10^-6 M), `CSC1=CC(=CCCCOc2ccccc2)C(=C/C=C\C(O)CCCO)C1=O` (stereo not drawn) [2-methylthio-5-[( -- Z)-4,7-dihydroxy-2-heptenylidene]-4-(4-phenoxybutylidene)-2-cyclopentenone] displayed an ALP of 0.94 ± 0.11 OD 415 nm/dish, a P of 60 ± 0.5 μg/dish and a Ca of 109 μg/dish. In test [1] (10^-7 M), this compound gave an ALP of 0.94 ± 0.07 OD 415 nm/dish, a P of 48 ± 4 μg/dish and a Ca of 85 ± 10 μg/dish.
For the compound `CSC1=CC(=CCCCOc2ccccc2)/C(=C/C=C/C(O)CCCO)C1=O` (stereo not drawn) [drawing 1108, 2-methylthio-5-[( -- Z)-4,7-dihydroxy-2-heptenylidene]-4-(4-phenoxybutylidene)-2-cyclopentenone], in test [1] (10^-6 M), the ALP came to 0.75 ± 0.17 OD 415 nm/dish, the P stood at 57 ± 1 μg/dish and the Ca is 105 μg/dish. Further, in test [1] (10^-7 M), the ALP worked out at 0.69 ± 0.02 OD 415 nm/dish, the P was found to be 60 ± 14 μg/dish and the Ca is 110 ± 30 μg/dish.
In test [1] (10^-6 M), `CCCCCC(O)C=CC1C=C(SC)C(=O)C1=CCCCCCC(=O)OC` (stereo not drawn) [drawing 1111, 2-methylthio-5-(6-methoxy-carbonylhexylidene)-4-(3-hydroxy-1-octenyl)-2-cyclo-pentenone] gave an ALP of 0.68 ± 0.10 OD 415 nm/dish, a P of 43 ± 4 μg/dish and a Ca of 79 μg/dish. In addition, in test [1] (10^-7 M), the ALP is 0.73 ± 0.02 OD 415 nm/dish, the P is reported as 46 ± 2 μg/dish and the Ca is 78 ± 4 μg/dish.
Turning to `Cn1ccnc1SC1=CC(O)(CCCCOc2ccccc2)C(=CC=C2CCCCC2)C1=O` (stereo not drawn), the ALP in test [2] (setting [3]) was 1.09 OD415 /dish; in test [2] (Table 36, 10^-7 M, control 1.17 ± 0.03) it was 1.19 ± 0.06 OD415 /dish. For the same compound, the Ca is 15.33 μg/dish in test [2] (setting [4]) and 3.33 ± 0.58 μg/dish in test [2] (Table 36, 10^-7 M, control 2.33 ± 1.15). For the same compound, the P in test [2] (Table 36, 10^-7 M, control 5.00 ± 0.00) was determined as 5.67 ± 0.58 μg/dish.
On to `O=C1C(SC2CCCCC2)=CC(O)(CCCCOc2ccccc2)C1C(O)C=CC(O)CCCO` (stereo not drawn), for which the ALP came out at 0.55 ± 0.04 OD413 /dish in test [2] (setting [5]) and 0.36 OD413 /dish in test [2] (Table 27, 10^-8 M, control 0.58 ± 0.03). The compound further had a P in test [2] (Table 27, 10^-7 M, control 11.50 ± 1.73) of 11.67 ± 3.18 μg/dish. The Ca in test [2] (setting [6]) was 13.83 ± 1.15 μg/dish; in test [2] (Table 27, 10^-8 M, control 11.83 ± 3.18), 20.17 μg/dish.
Regarding `COC(=O)CCCCCC=C1C(=O)C(Sc2nccn2C)=CC1(O)CCCCOc1ccccc1` (stereo not drawn), the ALP in test [2] (Table 30, 10^-6 M, control 0.60 ± 0.02) amounted to 0.60 OD415 /dish; in test [2] (Table 30, 10^-7 M, control 0.60 ± 0.02), 0.63 ± 0.02 OD415 /dish. The Ca was 43.67 μg/dish in test [2] (Table 30, 10^-6 M, control 3.00 ± 1.73) and 3.67 ± 1.15 μg/dish in test [2] (Table 30, 10^-7 M, control 3.00 ± 1.73). In test [2] (Table 30, 10^-7 M, control 5.33 ± 1.15), this compound gave a P of 6.33 ± 0.58 μg/dish.
In the case of `O=C1C(SC2CCCCC2)=CC(O)(CCCCOc2ccccc2)C1=CC=CC(O)CCCO` (stereo not drawn) [drawing 1070], the ALP in test [2] (Table 27, 10^-6 M, control 0.58 ± 0.03) is 0.64 ± 0.05 OD413 /dish; in test [2] (setting [5]) it was 0.53 OD413 /dish. The same compound yielded a P in test [2] (Table 27, 10^-6 M, control 11.50 ± 1.73) of 24.83 ± 2.47 μg/dish. The Ca in test [2] (Table 27, 10^-6 M, control 11.83 ± 3.18) was 33.50 ± 3.91 μg/dish; in test [2] (setting [6]), 19.67 μg/dish.
With `CSC1=CC(O)(CCCCOc2ccccc2)C(C(/C=C/C(O)CCCO)OC(C)=O)C1=O` (stereo not drawn), the ALP in test [2] (setting [7]) is 0.17 OD415 /dish; in test [2] (setting [9]), 1.10 ± 0.06 OD415 /dish. Moreover, the Ca in test [2] (setting [8]) was 104.00 μg/dish; in test [2] (setting [10]), 24.08 ± 2.00 μg/dish. In test [2] (setting [11]), this compound registered a P of 18.00 ± 1.00 μg/dish.
For `CC(C)(C)C1=C(Sc2ccccc2)C(=O)C(=CC=CC(O)CCCO)C1O` (stereo not drawn), the ALP in test [2] (Table 31, 10^-7 M, control 0.18 ± 0.06) is on record as 0.16 ± 0.04 OD415 /dish; in test [2] (Table 31, 10^-8 M, control 0.18 ± 0.06), 0.15 OD415 /dish. For the same compound, the Ca is 2.43 ± 0.19 μg/dish in test [2] (Table 31, 10^-7 M, control 1.88 ± 0.31) and 4.07 μg/dish in test [2] (Table 31, 10^-8 M, control 1.88 ± 0.31). The compound further gave a P in test [2] (Table 31, 10^-7 M, control 4.73 ± 0.37) of 4.68 ± 0.27 μg/dish.
Regarding `COC(=O)COc1cccc(C=C2C(=O)C(SC)=CC2(O)CCCCOc2ccccc2)c1` (stereo not drawn) [drawing 1073], the ALP in test [2] (Table 29, 10^-7 M, control 0.77 ± 0.20) came to 0.52 ± 0.10 OD413 /dish; in test [2] (Table 29, 10^-8 M, control 0.77 ± 0.20), 0.64 OD413 /dish. The compound also displayed a P in test [2] (Table 29, 10^-7 M, control 18.64 ± 3.16) of 21.72 ± 8.88 μg/dish. In addition, the Ca in test [2] (Table 29, 10^-7 M, control 31.26 ± 3.00) is 36.18 ± 14.29 μg/dish; in test [2] (Table 29, 10^-8 M, control 31.26 ± 3.00), 49.16 ± 26.04 μg/dish.
As to `O=C1C(=CCCC2CCCCC2)CC=C1Sc1ccccc1`, the ALP is listed as 0.36 ± 0.04 OD415 /dish in test [2] (Table 34, 10^-7 M, control 0.35 ± 0.02) and 0.30 OD415 /dish in test [2] (Table 34, 10^-8 M, control 0.35 ± 0.02). The P in test [2] (Table 34, 10^-7 M, control 12.41 ± 1.50) was found to be 12.33 ± 2.80 μg/dish; in test [2] (Table 34, 10^-8 M, control 12.41 ± 1.50), 8.98 ± 1.89 μg/dish. The Ca was found to be 23.94 ± 5.80 μg/dish in test [2] (Table 34, 10^-7 M, control 17.81 ± 0.50) and 18.13 ± 2.6 μg/dish in test [2] (Table 34, 10^-8 M, control 17.81 ± 0.50).
Regarding `CC(=O)OC(/C=C/C(O)CCCO)C1C(=O)C(Sc2nccn2C)=CC1(O)CCCCOc1ccccc1` (stereo not drawn), the ALP was found to be 0.15 OD415 /dish in test [2] (setting [7]) and 1.28 ± 0.03 OD415 /dish in test [2] (setting [9]). Also, the Ca in test [2] (setting [8]) came to 137.00 μg/dish; in test [2] (setting [10]), 51.67 ± 8.08 μg/dish. The compound further registered a P in test [2] (setting [11]) of 35.33 ± 5.03 μg/dish.
The corresponding values for `CC(C)OC(=O)OC(/C=C/C(O)CCCO)C1C(=O)C(Sc2nccn2C)=CC1(O)CCCCOc1ccccc1` (stereo not drawn) are 0.165 OD415 /dish, 1.24 ± 0.03 OD415 /dish, 136.67 μg/dish, 54.67 ± 2.08 μg/dish and 35.00 ± 2.00 μg/dish.
As for `CSC1=CC(O)(CCCCOc2ccccc2)C(CC=CC(O)CCCO)C1=O` (stereo not drawn), the ALP is given as 0.56 OD415 /dish in test [2] (Table 32, 10^-5 M, control 0.80 ± 0.01) and 0.84 ± 0.03 OD415 /dish in test [2] (Table 32, 10^-6 M, control 0.80 ± 0.01). In addition, the Ca in test [2] (Table 32, 10^-5 M, control 23.00 ± 1.00) was 30.67 ± 2.31 μg/dish; in test [2] (Table 32, 10^-6 M, control 23.00 ± 1.00), 10.67 ± 1.53 μg/dish. Besides, the P in test [2] (Table 32, 10^-6 M, control 15.67 ± 0.58) is on record as 9.33 ± 1.15 μg/dish.
Regarding `Cn1ccnc1SC1=CC(O)(CCCCOc2ccccc2)C(C(O)C2=C(C(C)(C)O)CCCC2)C1=O` (stereo not drawn), the ALP in test [2] (Table 36, 10^-5 M, control 1.17 ± 0.03) came out at 0.87 OD415 /dish; in test [2] (setting [3]), 1.20 ± 0.05 OD415 /dish. The Ca in test [2] (Table 36, 10^-5 M, control 2.33 ± 1.15) came out at 50.67 μg/dish; in test [2] (setting [4]), 2.00 ± 0.00 μg/dish. Besides, the P in test [2] (Table 36, 10^-6 M, control 5.00 ± 0.00) was determined as 5.00 ± 1.00 μg/dish.
For the compound `Cn1ccnc1SC1=CC(O)(CCCCOc2ccccc2)C(=CC=CC(O)CCCO)C1=O` (stereo not drawn) [drawing 1069], the ALP in test [2] (Table 26, 10^-6 M, control 0.27 ± 0.04) was 0.48 ± 0.04 OD413 /dish; in test [2] (Table 26, 10^-7 M, control 0.27 ± 0.04), 0.33 OD413 /dish. This compound also displayed a P in test [2] (Table 26, 10^-6 M, control 30.68 ± 3.33) of 46.43 ± 1.41 μg/dish. The Ca is reported as 79.83 ± 0.58 μg/dish in test [2] (Table 26, 10^-6 M, control 45.61 ± 6.19) and 61.95 μg/dish in test [2] (Table 26, 10^-7 M, control 45.61 ± 6.19).
As for `C[S+]([O-])C1=CC(O)(CCCCOc2ccccc2)/C(=C/C=C/C(O)CCCO)C1=O` (stereo not drawn) [drawing 1109, 2-methylsulfinyl-5-[( -- Z)-4,7-dihydroxy-2-heptenylidene]-4-(4-phenoxybutylidene)-4-hydroxy-2-cyclopentenone], in test [1] (10^-6 M), the ALP was 0.92 ± 0.9 OD 415 nm/dish, the P turned out to be 61 ± 4 μg/dish and the Ca amounted to 109 μg/dish. Moreover, in test [1] (10^-7 M), the ALP is recorded as 0.81 ± 0.11 OD 415 nm/dish, the P turned out to be 52 ± 1 μg/dish and the Ca is listed as 89 ± 1 μg/dish.
